Laboratory results from patent US9976141B2, “Compositions and methods for inhibiting gene expression of Hif2alpha” (Arrowhead Madison Inc., priority 2015, dated 2018).

The substances below were run on human (tumor) Hif2α (EPAS1) mRNA (assay: Hif2α knockdown in orthotopic RCC tumor bearing mice, single injection of RNAi trigger-delivery polymer conjugate, RT-qPCR (Table 7)). Conditions: RNAi trigger 50 μg, polymer 064 125 μg; single tail vein injection; relative to isotonic glucose.
Type: in vivo
In short: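 A single intravenous dose of Hif2α RNAi trigger–delivery polymer conjugate, or isotonic glucose vehicle, was given to nude mice with subcapsular A498-SEAP renal tumours (about 5–6 weeks old). At the indicated time, tumour RNA was assayed by biplex TaqMan qPCR against CycA, and relative expression was calculated by ΔΔCT versus vehicle.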
“AD02873 (antisense UUUCAUGAAAUCGUUACGUUG; sense UAUACGUAACGAUUUCAUGAAAT; Hif2alpha RNAi agent antisense strand; modified_base 2,4,6,8,10,14,16,18 /mod_base = “2′-deoxy-2′-fluoro corresponding nucleoside”; modified_base 1,3,5,7,9,11,12,13,15,17,19,20,21 /mod_base = “2′-O-methyl corresponding nucleoside”; modified_base 2,3,20,21 /mod_base = “5′-phosphorothioate corresponding nucleotide”; Hif2alpha RNAi agent sense strand; modified_base 2 modified base = “2′-hydroxy corresponding nucleoside”; modified_base 6,8,10,11,12,16,18,20 /mod_base = “2′-deoxy-2′-fluoro corresponding nucleoside”; modified_base 1,3,4,5,7,9,13,14,15,17,19,21,22 /mod_base = “2′-O-methyl correspon)” was tested, and the “Relative Expression day 4 (Hif2α mRNA in kidney tumor)” value was 0.079.
For “AD02874 (antisense UUUCAUGAAAUCGUUACGUUG; sense UAUACGUAACGAUUUCAUGAAAT; Hif2alpha RNAi agent antisense strand; modified_base 2,4,6,8,10,14,16,18 /mod_base = “2′-deoxy-2′-fluoro corresponding nucleoside”; modified_base 1,3,5,7,9,11,12,13,15,17,19,20,21 /mod_base = “2′-O-methyl corresponding nucleoside”; modified_base 2,3,20,21 /mod_base = “5′-phosphorothioate corresponding nucleotide”; Hif2alpha RNAi agent sense strand; modified_base 2 modified base = “2′-hydroxy corresponding nucleoside”; modified_base 10,11,12,16 /mod_base = “2′-deoxy-2′-fluoro corresponding nucleoside”; modified_base 1,3,4,5,6,7,8,9,13,14,15,17,18,19,20,21,22 /mod_base = “2′-O-methyl correspon)”, the “Relative Expression day 4 (Hif2α mRNA in kidney tumor)” value was 0.138.
For “AD02875 (antisense AUUCAUGAAAUCGUUACGUUG; sense UAUACGUAACGAUUUCAUGAAUT; Hif2alpha RNAi agent antisense strand; modified_base 2,4,6,8,10,14,16,18 /mod_base = “2′-deoxy-2′-fluoro corresponding nucleoside”; modified_base 1,3,5,7,9,11,12,13,15,17,19,20,21 /mod_base = “2′-O-methyl corresponding nucleoside”; modified_base 2,3,20,21 /mod_base = “5′-phosphorothioate corresponding nucleotide”; Hif2alpha RNAi agent sense strand; modified_base 2 modified base = “2′-hydroxy corresponding nucleoside”; modified_base 10,11,12,16 /mod_base = “2′-deoxy-2′-fluoro corresponding nucleoside”; modified_base 1,3,4,5,6,7,8,9,13,14,15,17,18,19,20,21,22 /mod_base = “2′-O-methyl correspon)”, the “Relative Expression day 4 (Hif2α mRNA in kidney tumor)” value was 0.101.
In the case of “AD02949 (antisense UUUCAUGAAAUCGUUACGUUG; sense ACGUAACGAUUUCAUGAAAT; Hif2alpha RNAi agent antisense strand; modified_base 2,4,6,8,10,14,16,18 /mod_base = “2′-deoxy-2′-fluoro corresponding nucleoside”; modified_base 1,3,5,7,9,11,12,13,15,17,19,20,21 /mod_base = “2′-O-methyl corresponding nucleoside”; modified_base 2,3,20,21 /mod_base = “5′-phosphorothioate corresponding nucleotide”; Hif2alpha RNAi agent sense strand; modified_base 7,9,13 /mod_base = “2′-deoxy-2′-fluoro corresponding nucleoside”; modified_base 1,2,3,4,5,6,8,10,11,12,14,15,16,17,18,19 /mod_base = “2′-O-methyl corresponding nucleoside”; modified_base 20 /mod_base = “3′-3′-linked nucleotide”; modi)”, the “Relative Expression day 4 (Hif2α mRNA in kidney tumor)” value is reported as 0.176.
In the case of “AD03011 (antisense UUUCAUGAAAUCGUUACGUUG; sense UAUACGUAACGAUUUCAUGAAAT; Hif2alpha RNAi agent antisense strand; modified_base 2,4,6,8,10,14,16,18 /mod_base = “2′-deoxy-2′-fluoro corresponding nucleoside”; modified_base 1,3,5,7,9,11,12,13,15,17,19,20,21 /mod_base = “2′-O-methyl corresponding nucleoside”; modified_base 2,3,20,21 /mod_base = “5′-phosphorothioate corresponding nucleotide”; Hif2alpha RNAi agent sense strand; modified_base 2 modified base = “2′-hydroxy corresponding nucleoside”; modified_base 10,12,16 /mod_base = “2′-deoxy-2′-fluoro corresponding nucleoside”; modified_base 1,3,4,5,6,7,8,9,11,13,14,15,17,18,19,20,21,22 /mod_base = “2′-O-methyl correspon)”, the “Relative Expression day 4 (Hif2α mRNA in kidney tumor)” value is reported as 0.183.
For “AD03187 (antisense UGUAAAACAAUUGUGUACUUU; sense AGUACACAAUUGUUUUACAT; Hif2alpha RNAi agent antisense strand; modified_base 2,4,6,8,10,14,16,18 /mod_base = “2′-deoxy-2′-fluoro corresponding nucleoside”; modified_base 1,3,5,7,9,11,12,13,15,17,19,20,21 /mod_base = “2′-O-methyl corresponding nucleoside”; modified_base 2,3,20,21 /mod_base = “5′-phosphorothioate corresponding nucleotide”; Hif2alpha RNAi agent sense strand; modified_base 3,5,7,8,9,11,13,17 /mod_base = “2′-deoxy-2′-fluoro corresponding nucleoside”; modified_base 1,2,4,6,10,12,14,15,16,18,19 /mod_base = “2′-O-methyl corresponding nucleoside”; modified_base 20 /mod_base = “3′-3′-linked nucleotide”; modi)”, the “Relative Expression day 4 (Hif2α mRNA in kidney tumor)” value was 1.000.
“AD03188 (antisense AGUAAAACAAUUGUGUACUUU; sense AGUACACAAUUGUUUUACUT; Hif2alpha RNAi agent antisense strand; modified_base 2,4,6,8,10,14,16,18 /mod_base = “2′-deoxy-2′-fluoro corresponding nucleoside”; modified_base 1,3,5,7,9,11,12,13,15,17,19,20,21 /mod_base = “2′-O-methyl corresponding nucleoside”; modified_base 2,3,20,21 /mod_base = “5′-phosphorothioate corresponding nucleotide”; Hif2alpha RNAi agent sense strand; modified_base 3,5,7,8,9,11,13,17 /mod_base = “2′-deoxy-2′-fluoro corresponding nucleoside”; modified_base 1,2,4,6,10,12,14,15,16,18,19 /mod_base = “2′-O-methyl corresponding nucleoside”; modified_base 20 /mod_base = “3′-3′-linked nucleotide”; modi)” was tested, and the “Relative Expression day 4 (Hif2α mRNA in kidney tumor)” value was 0.308.
With “AD03189 (antisense UGUAAAACAAUUGUGUACUUUAA; sense AAAGUACACAAUUGUUUUACA; Hif2alpha RNAi agent antisense strand; modified_base 2,4,6,8,10,14,16,18 /mod_base = “2′-deoxy-2′-fluoro corresponding nucleoside”; modified_base 1,3,5,7,9,11,12,13,15,17,19,20,21,22,23 /mod_base = “2′-O-methyl corresponding nucleoside”; modified_base 2,3,22,23 /mod_base = “5′-phosphorothioate corresponding nucleotide”; Hif2alpha RNAi agent sense strand; modified_base 3,5,7,9,10,11,13,15,19 /mod_base = “2′-deoxy-2′-fluoro corresponding nucleoside”; modified_base 1,2,4,6,8,12,14,16,17,18,20 /mod_base = “2′-O-methyl corresponding nucleoside”; modified_base 21 /mod_base = “3′-3′-linked nucleoti)” the “Relative Expression day 4 (Hif2α mRNA in kidney tumor)” value was 0.245.
For “AD03190 (antisense AGUAAAACAAUUGUGUACUUUAA; sense AAAGUACACAAUUGUUUUACT; Hif2alpha RNAi agent antisense strand; modified_base 2,4,6,8,10,14,16,18 /mod_base = “2′-deoxy-2′-fluoro corresponding nucleoside”; modified_base 1,3,5,7,9,11,12,13,15,17,19,20,21,22,23 /mod_base = “2′-O-methyl corresponding nucleoside”; modified_base 2,3,22,23 /mod_base = “5′-phosphorothioate corresponding nucleotide”; Hif2alpha RNAi agent sense strand; modified_base 3,5,7,9,10,11,13,15,19 /mod_base = “2′-deoxy-2′-fluoro corresponding nucleoside”; modified_base 1,2,4,6,8,12,14,16,17,18,20 /mod_base = “2′-O-methyl corresponding nucleoside”; modified_base 21 /mod_base = “3′-3′-linked nucleoti)”, the “Relative Expression day 4 (Hif2α mRNA in kidney tumor)” value was 0.269.
